Assay results published in ChEMBL document CHEMBL5465560, “Selectivity Literature for EUbOPEN Chemogenomic Library” (2024).

Experiments:
[1] = biological target: Serine/threonine-protein kinase 26 (Homo sapiens, UniProt Q9P289); conditions: at 10 µM
[2] = biological target: T1, Dual specificity protein kinase TTK (Homo sapiens) (UniProt P33981); assay: Selectivity interaction (Kinase panel (Invitrogen)) EUB0000639a TTK; conditions: at 200 nM
T1 sequence (whole entry): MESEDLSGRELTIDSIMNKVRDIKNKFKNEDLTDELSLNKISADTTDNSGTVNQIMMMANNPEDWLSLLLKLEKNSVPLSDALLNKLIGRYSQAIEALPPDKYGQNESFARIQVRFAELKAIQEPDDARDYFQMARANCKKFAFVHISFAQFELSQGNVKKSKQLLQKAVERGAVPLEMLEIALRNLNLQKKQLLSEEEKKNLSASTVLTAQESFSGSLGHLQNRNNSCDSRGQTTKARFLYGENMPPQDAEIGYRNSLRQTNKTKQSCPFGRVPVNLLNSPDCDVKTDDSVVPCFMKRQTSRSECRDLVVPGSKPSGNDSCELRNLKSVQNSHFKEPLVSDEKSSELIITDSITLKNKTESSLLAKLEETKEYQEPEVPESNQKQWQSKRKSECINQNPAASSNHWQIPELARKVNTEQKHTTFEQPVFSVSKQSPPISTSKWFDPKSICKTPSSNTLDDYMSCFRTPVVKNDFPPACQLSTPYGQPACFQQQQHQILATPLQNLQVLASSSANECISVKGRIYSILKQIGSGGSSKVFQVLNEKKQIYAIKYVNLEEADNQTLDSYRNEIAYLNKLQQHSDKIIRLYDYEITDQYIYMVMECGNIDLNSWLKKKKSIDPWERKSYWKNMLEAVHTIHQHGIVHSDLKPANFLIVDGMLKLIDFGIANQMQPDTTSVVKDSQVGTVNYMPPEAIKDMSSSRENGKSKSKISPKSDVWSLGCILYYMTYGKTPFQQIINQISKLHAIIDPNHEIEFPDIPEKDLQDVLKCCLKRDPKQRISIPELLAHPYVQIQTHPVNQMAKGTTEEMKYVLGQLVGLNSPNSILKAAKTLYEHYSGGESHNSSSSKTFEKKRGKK

[3] = biological target: Protein kinase C delta type (Homo sapiens) (UniProt Q05655); assay: Selectivity interaction (KinomeScan (DiscoverX)) EUB0000595a PRKCD; conditions: at 10 µM
[4] = biological target: SRSF protein kinase 2 (Homo sapiens) (UniProt P78362); assay: Selectivity interaction (KinomeScan (DiscoverX)) EUB0000595a SRPK2; conditions: at 10 µM
[5] = biological target: Serine/threonine-protein kinase mTOR (Homo sapiens, UniProt P42345); assay: Selectivity interaction (KinomeScan (DiscoverX)) EUB0000595a MTOR; conditions: at 10 µM
[6] = biological target: T2, Membrane-associated tyrosine- and threonine-specific cdc2-inhibitory kinase (Homo sapiens) (UniProt Q99640); assay: Selectivity interaction (KinomeScan (DiscoverX)) EUB0000045b PKMYT1
T2 sequence (whole entry): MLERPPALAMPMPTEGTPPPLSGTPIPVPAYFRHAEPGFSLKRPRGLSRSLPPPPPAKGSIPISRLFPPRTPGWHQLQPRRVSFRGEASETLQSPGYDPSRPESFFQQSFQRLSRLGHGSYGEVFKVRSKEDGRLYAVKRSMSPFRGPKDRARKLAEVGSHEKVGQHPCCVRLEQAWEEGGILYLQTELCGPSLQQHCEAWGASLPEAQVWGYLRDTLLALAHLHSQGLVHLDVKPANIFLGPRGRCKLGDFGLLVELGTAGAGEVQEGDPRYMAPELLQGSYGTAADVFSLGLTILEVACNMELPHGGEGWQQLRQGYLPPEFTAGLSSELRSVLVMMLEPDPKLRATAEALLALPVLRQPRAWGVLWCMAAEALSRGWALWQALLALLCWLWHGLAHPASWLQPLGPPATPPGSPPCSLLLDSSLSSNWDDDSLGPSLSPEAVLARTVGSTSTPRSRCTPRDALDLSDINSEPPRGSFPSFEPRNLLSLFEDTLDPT

[7] = biological target: T3, Cytoplasmic tyrosine-protein kinase BMX (Homo sapiens) (UniProt P51813); assay: Selectivity interaction (Ambit KINOMEscan and KiNATiv profiling in Jurkat cells) EUB0000090b BMX; format: cell-based; conditions: at 1 µM
T3 sequence (whole entry): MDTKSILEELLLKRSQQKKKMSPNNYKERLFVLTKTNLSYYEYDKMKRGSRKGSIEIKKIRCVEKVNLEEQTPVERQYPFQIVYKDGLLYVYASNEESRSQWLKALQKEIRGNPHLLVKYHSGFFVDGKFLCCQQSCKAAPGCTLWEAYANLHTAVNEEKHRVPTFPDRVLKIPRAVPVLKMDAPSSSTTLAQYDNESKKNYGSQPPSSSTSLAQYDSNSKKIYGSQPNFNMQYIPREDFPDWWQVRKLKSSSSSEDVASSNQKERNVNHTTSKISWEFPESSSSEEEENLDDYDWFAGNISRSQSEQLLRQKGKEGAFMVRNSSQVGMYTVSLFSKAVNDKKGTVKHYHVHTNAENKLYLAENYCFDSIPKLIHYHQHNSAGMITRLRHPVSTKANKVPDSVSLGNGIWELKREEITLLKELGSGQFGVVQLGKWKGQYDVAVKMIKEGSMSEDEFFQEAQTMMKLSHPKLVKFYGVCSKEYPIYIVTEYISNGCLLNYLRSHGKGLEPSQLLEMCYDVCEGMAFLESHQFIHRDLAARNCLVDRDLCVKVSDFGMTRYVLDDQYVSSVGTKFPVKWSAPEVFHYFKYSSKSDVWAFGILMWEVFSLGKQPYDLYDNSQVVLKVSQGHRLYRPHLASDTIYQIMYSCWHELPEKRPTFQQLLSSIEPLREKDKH

[8] = biological target: Aurora kinase B (Homo sapiens, UniProt Q96GD4); assay: Selectivity interaction (KinomeScan (DiscoverX)) EUB0001619a AURKB; conditions: at 1 µM
Aurora kinase B, sequence (Q96GD4 whole entry): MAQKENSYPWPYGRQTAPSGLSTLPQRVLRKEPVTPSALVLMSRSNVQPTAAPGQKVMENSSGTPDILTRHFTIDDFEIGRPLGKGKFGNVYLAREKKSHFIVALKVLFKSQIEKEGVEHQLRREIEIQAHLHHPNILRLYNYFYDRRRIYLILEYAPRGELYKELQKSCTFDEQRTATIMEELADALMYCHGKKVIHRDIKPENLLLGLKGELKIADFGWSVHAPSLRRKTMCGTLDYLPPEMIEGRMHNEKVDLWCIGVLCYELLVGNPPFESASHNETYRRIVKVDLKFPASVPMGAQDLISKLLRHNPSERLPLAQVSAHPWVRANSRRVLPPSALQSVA

SRSF protein kinase 2 (Homo sapiens), sequence (P78362 whole entry, looked up): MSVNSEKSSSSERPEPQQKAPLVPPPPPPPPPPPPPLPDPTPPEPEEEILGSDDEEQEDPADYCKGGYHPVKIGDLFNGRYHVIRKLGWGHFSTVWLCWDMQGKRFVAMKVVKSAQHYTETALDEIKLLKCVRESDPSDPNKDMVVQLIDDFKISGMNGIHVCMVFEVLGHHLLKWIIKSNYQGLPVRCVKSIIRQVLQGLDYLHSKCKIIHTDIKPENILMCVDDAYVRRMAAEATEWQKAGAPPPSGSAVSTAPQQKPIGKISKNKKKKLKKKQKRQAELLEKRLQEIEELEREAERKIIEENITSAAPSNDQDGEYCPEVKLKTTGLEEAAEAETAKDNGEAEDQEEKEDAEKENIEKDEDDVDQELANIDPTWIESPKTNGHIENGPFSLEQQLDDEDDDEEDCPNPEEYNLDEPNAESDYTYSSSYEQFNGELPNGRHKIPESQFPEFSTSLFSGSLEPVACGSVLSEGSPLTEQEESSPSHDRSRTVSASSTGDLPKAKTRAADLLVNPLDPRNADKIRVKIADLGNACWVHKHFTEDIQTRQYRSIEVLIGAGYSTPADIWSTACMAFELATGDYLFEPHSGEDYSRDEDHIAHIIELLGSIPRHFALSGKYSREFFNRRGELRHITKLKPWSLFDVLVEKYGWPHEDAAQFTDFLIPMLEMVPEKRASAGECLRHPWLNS
Protein kinase C delta type (Homo sapiens), sequence (Q05655 whole entry, looked up): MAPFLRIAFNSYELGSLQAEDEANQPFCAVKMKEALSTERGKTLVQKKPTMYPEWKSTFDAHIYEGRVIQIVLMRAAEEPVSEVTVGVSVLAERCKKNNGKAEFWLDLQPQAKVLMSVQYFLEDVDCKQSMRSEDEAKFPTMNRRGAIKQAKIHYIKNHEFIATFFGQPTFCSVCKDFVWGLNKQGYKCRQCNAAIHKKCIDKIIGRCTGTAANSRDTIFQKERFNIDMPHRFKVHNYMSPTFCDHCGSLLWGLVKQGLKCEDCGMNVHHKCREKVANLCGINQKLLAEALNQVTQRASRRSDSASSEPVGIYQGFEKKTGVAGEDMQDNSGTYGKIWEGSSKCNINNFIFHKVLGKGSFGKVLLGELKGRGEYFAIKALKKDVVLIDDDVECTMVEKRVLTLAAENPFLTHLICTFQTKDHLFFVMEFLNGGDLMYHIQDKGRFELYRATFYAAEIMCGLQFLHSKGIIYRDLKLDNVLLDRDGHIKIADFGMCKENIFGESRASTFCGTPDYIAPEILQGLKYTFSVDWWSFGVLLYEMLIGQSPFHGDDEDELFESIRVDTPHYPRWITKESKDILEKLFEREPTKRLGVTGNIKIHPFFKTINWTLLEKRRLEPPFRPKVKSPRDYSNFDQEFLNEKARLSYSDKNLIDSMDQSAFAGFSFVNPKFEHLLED
Serine/threonine-protein kinase 26, sequence (Q9P289 2-416 limits assumed): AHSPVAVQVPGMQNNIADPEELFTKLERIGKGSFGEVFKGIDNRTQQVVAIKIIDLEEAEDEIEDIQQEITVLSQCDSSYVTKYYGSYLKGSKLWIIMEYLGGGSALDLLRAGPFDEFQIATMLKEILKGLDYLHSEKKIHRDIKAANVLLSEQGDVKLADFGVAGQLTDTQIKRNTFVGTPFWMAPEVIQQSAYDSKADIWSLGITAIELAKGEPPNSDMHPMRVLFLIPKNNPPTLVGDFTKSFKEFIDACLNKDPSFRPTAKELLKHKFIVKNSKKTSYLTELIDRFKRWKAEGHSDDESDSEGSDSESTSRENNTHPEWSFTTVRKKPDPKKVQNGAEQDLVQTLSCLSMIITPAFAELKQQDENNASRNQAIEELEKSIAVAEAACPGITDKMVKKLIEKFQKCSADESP

Compound `Cc1cc([C@@H](C)Nc2ccccc2C(=O)O)c2nc(N3CCOCC3)cc(=O)n2c1` [AZD-6482] has a % of control [1] of 100%.
For `CC[C@@H]1[C@H](F)C(=O)N[C@@H]1COc1nccc2cc(C(N)=O)c(OC)cc12` [ZIMLOVISERTIB], the % of inhibition [2] was 8.59%.
Compound `COCC(=O)NC/C=C/c1ccc2ncnc(Nc3ccc(Oc4ccc(C)nc4)c(C)c3)c2c1` [CP-724714] has a % of control [3] of 87%, a % of control [4] of 92% and a % of control [5] of 79%.
For `C=CC(=O)Nc1cc(-n2c(=O)ccc3cnc4ccc(-c5ccc(NS(C)(=O)=O)cc5)cc4c32)ccc1C`, the % of control ([6]; at 1 µM) was 77% and the % of control ([6]; at 10 µM) was 100%.
`CN(C)C/C=C/C(=O)Nc1ccc(C(=O)N2CCCC(Nc3ncc(Cl)c(-c4c[nH]c5ccccc45)n3)C2)cc1` (centres undefined) showed a % of control [7] of 95%.
Compound `N#Cc1cccc(-c2c[nH]c3ncnc(N4CCOCC4)c23)c1` has a % of control [8] of 26%.
